Calls of active or inactive are those of the source. No cut-off for these calls is given here.
Tests used:
PANC-1 [1] = assay: Induction of apoptosis in human PANC-1 cells assessed as increase in cleaved PARP expression level at 2 uM incubated for 24 hrs by Western blot analysis; assay type: functional, cell-based
HT-29 [2] = assay: Effect on RAS expression in tumor of BALB/c mouse xenografted with human HT-29 cells at 7.5 to 15 mg/kg, ip administered once every 2 days for 12 times and measured after 24 days by Western blot analysis; assay type: functional, organism-based; conditions: Neoplasm, dose 7.5-15 mg/kg, time 24.0 day
Mus musculus [3] = assay: In vivo inhibition of HDAC3 in BALB/c mouse xenografted with human HT-29 cells assessed as induction of histone H3 acetylation administered intraperitoneally once every 2 days for 12 times and measured after 24 days by Western blot analysis; assay type: functional; conditions: dose 7.5-15 mg/kg, route ip, time 24.0 day
PANC-1 [4] = assay: Induction of apoptosis in human PANC-1 cells assessed as increase in cleaved caspase-9 expression level at 2 uM incubated for 24 hrs by Western blot analysis; assay type: functional, cell-based
PANC-1 [5] = assay: Cell cycle arrest in human PANC-1 cells assessed as accumulation of cells at G2-M phase at 2 uM incubated for 24 hrs by PI/RNase staining based flow cytometric analysis; assay type: functional
[6] = MRT (0 to infinity) in Sprague-Dawley rat at 15 mg/kg, ip measured after 24 hrs by LC-MS/MS analysis; assay type: ADME, organism-based; conditions: in vivo
HepG2 = assay: cells; conditions: Homo sapiens, HepG2, 72 h
Description: Cytotoxicity against human HepG2 cells assessed as inhibition of cell growth incubated for 72 hrs by MTT assay

PANC-1 [7] = assay: Effect on RAS protein expression in human PANC-1 cells at 2 uM incubated for 24 hrs by Western blot analysis; assay type: functional, cell-based
[8] = Metabolic stability in human liver microsomes assessed as half-life at 1 uM measured upto 40 mins by LC-MS/MS analysis; assay type: ADME, Microsome
Histone deacetylase 4 = Histone deacetylase 4 (Homo sapiens, UniProt P56524); assay: Inhibition of HDAC4 (unknown origin)
PANC-1 [9] = assay: Effect on MEK protein expression in human PANC-1 cells at 2 uM incubated for 24 hrs by Western blot analysis; assay type: functional, cell-based
PANC-1 [10] = assay: cells; conditions: Homo sapiens, PANC-1, 72 h
Description: Cytotoxicity against human PANC-1 cells assessed as inhibition of cell growth incubated for 72 hrs by MTT assay

PANC-1 [11] = assay: Effect on Histone H3 expression in human PANC-1 cells at 2 uM incubated for 24 hrs by Western blot analysis; assay type: functional, cell-based
HT-29 [12] = assay: Effect on Histone H3 expression in human HT-29 cells at 2 uM incubated for 24 hrs by Western blot analysis; assay type: functional, cell-based
PANC-1 [13] = assay: Inhibition of MAPK signaling pathway in human PANC-1 cells assessed as inhibition of MEK phosphorylation at 2 uM incubated for 24 hrs by Western blot analysis; assay type: cell-based
HT-29 [14] = assay: Inhibition of MAPK signaling pathway in human HT-29 cells assessed as inhibition of C-RAF phosphorylation at Ser338 residue at 2 uM incubated for 24 hrs by Western blot analysis; assay type: cell-based
HT-29 [15] = assay: Antitumor activity against human HT-29 xenografted in BALB/c nude mouse assessed as tumor growth inhibition at 15 mg/kg, ip administered once every 2 days for 12 times for 24 days relative to control; assay type: functional; conditions: HT-29, 576 h, time 24 day, read-out: TGI
[16] = Metabolic stability in mouse liver microsomes assessed as intrinsic clearance at 1 uM measured upto 40 mins by LC-MS/MS analysis; assay type: ADME, Microsome; conditions: read-out: CLH
[17] = Metabolic stability in rat liver microsomes assessed as half-life at 1 uM measured upto 40 mins by LC-MS/MS analysis; assay type: ADME, Microsome
PANC-1 [18] = assay: Induction of apoptosis in human PANC-1 cells assessed as increase in cleaved caspase-3 expression level at 2 uM incubated for 24 hrs by Western blot analysis; assay type: functional, cell-based
MV4-11 = assay: cells; conditions: Homo sapiens, MV4-11, 72 h
Description: Cytotoxicity against human MV4-11 cells assessed as inhibition of cell growth incubated for 72 hrs by MTT assay

[19] = Half-life in Sprague-Dawley rat at 15 mg/kg, ip measured after 24 hrs by LC-MS/MS analysis; assay type: ADME, organism-based; conditions: in vivo
[20] = Toxicity in BALB/c nude mouse xenografted with human HT-29 cells assessed as change in main organs at 7.5 to 15 mg/kg, ip administered once every 2 days for 12 times for 24 days by H&E staining based analysis; assay type: organism-based; conditions: in vivo, 576 h, dose 7.5-15 mg/kg, time 24 day
[21] = AUC (0 to infinity) in Sprague-Dawley rat at 15 mg/kg, ip measured after 24 hrs by LC-MS/MS analysis; assay type: ADME, organism-based; conditions: in vivo
PANC-1 [22] = assay: Induction of apoptosis in human PANC-1 cells incubated for 24 hrs by flow cytometric analysis; assay type: functional, cell-based; conditions: dose 1-4 µM
HT-29 [23] = assay: Effect on RAS protein expression in human HT-29 cells at 2 uM incubated for 24 hrs by Western blot analysis; assay type: functional, cell-based
PANC-1 [24] = assay: Induction of apoptosis in human PANC-1 cells assessed as increase in Bax expression at 2 uM incubated for 24 hrs by Western blot analysis; assay type: functional, cell-based
[25] = Toxicity in BALB/c nude mouse xenografted with human HT-29 cells assessed as change in body weight at 7.5 to 15 mg/kg, ip administered once daily for 24 days; assay type: organism-based; conditions: in vivo, 576 h, dose 7.5-15 mg/kg, time 24 day
HT-29 [26] = assay: Effect on alpha-tubulin expression in tumor of BALB/c mouse xenografted with human HT-29 cells at 7.5 to 15 mg/kg, ip administered once every 2 days for 12 times and measured after 24 days by Western blot analysis; assay type: functional, organism-based; conditions: Neoplasm, dose 7.5-15 mg/kg, time 24.0 day
HT-29 [27] = assay: Induction of apoptosis in human HT-29 cells assessed as apoptotic ratio at 2 uM incubated for 24 hrs by flow cytometric analysis; assay type: functional
Mus musculus [28] = assay: In vivo inhibition of MAPK signaling pathway in BALB/c mouse xenografted with human HT-29 cells assessed as inhibition of ERK1/2 phosphorylation administered intraperitoneally once every 2 days for 12 times and measured after 24 days by Western blot analysis; assay type: functional; conditions: dose 7.5-15 mg/kg, route ip, time 24.0 day
HT-29 [29] = assay: Effect on ERK1/2 protein expression in human HT-29 cells at 2 uM incubated for 24 hrs by Western blot analysis; assay type: functional, cell-based
HT-29 [30] = assay: Inhibition of MAPK signaling pathway in human HT-29 cells assessed as inhibition of ERK1/2 phosphorylation at 2 uM incubated for 24 hrs by Western blot analysis; assay type: cell-based
HT-29 [31] = assay: Antitumor activity against human HT-29 cells xenografted in BALB/c nude mouse assessed as tumor growth inhibition administered intraperitoneally once a day for 24 days; assay type: functional, cell-based; conditions: route ip, time 24.0 day
PANC-1 [32] = assay: Effect on ERK1/2 protein expression in human PANC-1 cells at 2 uM incubated for 24 hrs by Western blot analysis; assay type: functional, cell-based
[33] = MRT (0 to t) in Sprague-Dawley rat at 15 mg/kg, ip measured after 24 hrs by LC-MS/MS analysis; assay type: ADME, organism-based; conditions: in vivo
[34] = Metabolic stability in mouse liver microsomes assessed as half-life at 1 uM measured upto 40 mins by LC-MS/MS analysis; assay type: ADME, Microsome
HT-29 [35] = assay: Antitumor activity against human HT-29 cells xenografted in BALB/c nude mouse assessed as tumor growth inhibition at 7.5 mg/kg, ip administered once a day for 24 days relative to control; assay type: functional; conditions: HT-29, 576 h, time 24 day, read-out: TGI
PANC-1 [36] = assay: Induction of apoptosis in human PANC-1 cells assessed as increase in Cytochrome C expression level at 2 uM incubated for 24 hrs by Western blot analysis; assay type: functional, cell-based

Histone deacetylase 4, sequence (P56524 whole entry): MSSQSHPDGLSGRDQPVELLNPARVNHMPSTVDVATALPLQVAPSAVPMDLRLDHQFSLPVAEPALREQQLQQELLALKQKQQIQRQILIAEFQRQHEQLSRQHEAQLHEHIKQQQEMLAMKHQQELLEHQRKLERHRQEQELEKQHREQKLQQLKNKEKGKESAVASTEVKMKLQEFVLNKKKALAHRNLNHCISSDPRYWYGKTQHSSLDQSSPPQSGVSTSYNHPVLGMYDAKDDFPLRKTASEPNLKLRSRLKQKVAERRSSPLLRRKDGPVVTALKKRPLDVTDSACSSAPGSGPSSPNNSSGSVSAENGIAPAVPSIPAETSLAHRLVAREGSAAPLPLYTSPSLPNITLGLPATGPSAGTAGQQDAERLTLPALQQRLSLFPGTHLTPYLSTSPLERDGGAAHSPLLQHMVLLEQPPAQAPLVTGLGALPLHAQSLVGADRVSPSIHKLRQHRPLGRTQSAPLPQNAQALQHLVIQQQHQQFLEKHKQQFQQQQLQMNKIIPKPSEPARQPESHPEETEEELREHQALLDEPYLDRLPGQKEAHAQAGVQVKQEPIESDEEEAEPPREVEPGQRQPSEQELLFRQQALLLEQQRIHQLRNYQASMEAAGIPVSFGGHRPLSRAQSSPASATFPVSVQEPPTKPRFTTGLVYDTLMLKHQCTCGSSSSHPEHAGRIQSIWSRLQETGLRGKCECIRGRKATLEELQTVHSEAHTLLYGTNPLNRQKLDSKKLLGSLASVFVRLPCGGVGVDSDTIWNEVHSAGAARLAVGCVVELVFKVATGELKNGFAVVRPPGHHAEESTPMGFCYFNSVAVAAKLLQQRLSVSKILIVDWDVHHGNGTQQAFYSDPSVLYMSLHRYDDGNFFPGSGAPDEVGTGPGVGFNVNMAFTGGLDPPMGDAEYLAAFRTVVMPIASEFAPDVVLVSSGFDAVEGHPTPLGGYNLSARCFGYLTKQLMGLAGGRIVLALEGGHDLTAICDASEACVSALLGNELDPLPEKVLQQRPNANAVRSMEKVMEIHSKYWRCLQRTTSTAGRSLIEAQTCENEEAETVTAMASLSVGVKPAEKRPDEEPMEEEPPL

In the case of `COc1cc(OC)c(/C=C/S(=O)(=O)Cc2ccc(OC)c(NCC(=O)NO)c2)c(OC)c1`, the Activity (PANC-1 [1]) is reported as “Active”, the Activity (HT-29 [2]) is reported as “inactive” and the inhibition (Mus musculus [3]) is reported as “Dose-Dependent Effect”. The Activity (PANC-1 [4]) was “Active”, the Activity (PANC-1 [5]) was “Active” and the MRT inf [6] was 1.34 h. For the same compound, the IC50 (HepG2) was 990 nM, the Activity (PANC-1 [7]) was “inactive” and the half-life at 1 µM [8] was 124 min. For the same compound, the IC50 (Histone deacetylase 4) was 75 nM, the Activity (PANC-1 [9]) was “inactive” and the IC50 (PANC-1 [10]) was 50 nM. For the same compound, the Activity (PANC-1 [11]) was “inactive”, the Activity (HT-29 [12]) was “inactive” and the inhibition (PANC-1 [13]) was “Active”. The inhibition (HT-29 [14]) was “Active”, the inhibition in vivo at 15 mg/kg (HT-29 [15]) was 75.2% and the CLint scaled at 1 µM [16] was 191 mL/min/kg. The half-life at 1 µM [17] was 5.52 min, the Activity (PANC-1 [18]) was “Active” and the IC50 (MV4-11) was 80 nM. For the same compound, the half-life [19] was 46.3 min, the Activity [20] was “Non-Toxic” and the AUC(0-inf) [21] was 5200 ng·h/mL. The Activity (PANC-1 [22]) was “Dose-Dependent Effect”, the Activity (HT-29 [23]) was “inactive” and the Activity (PANC-1 [24]) was “Active”. The Activity [25] was “Non-Toxic”, the Activity (HT-29 [26]) was “inactive” and the Activity (HT-29 [27]) was 51.5%. For the same compound, the inhibition (Mus musculus [28]) was “Dose-Dependent Effect”, the Activity (HT-29 [29]) was “inactive” and the inhibition (HT-29 [30]) was “Active”. The TGI (HT-29 [31]) was “Dose-Dependent Effect”, the Activity (PANC-1 [32]) was “inactive” and the MRT last at 24 h [33] was 1.34 h. The half-life at 1 µM [34] was 28.6 min, the inhibition in vivo at 7.5 mg/kg (HT-29 [35]) was 70.1% and the Activity (PANC-1 [36]) was “Active”.

From ChEMBL document CHEMBL5537193, “Multitargeting HDAC Inhibitors Containing a RAS/RAF Protein Interfering Unit” (J Med Chem, 2024)
